Broadly, the IC50 is the concentration needed to halve the response being measured.

SMILES strings stand for the structures.

What all share (type): biochemical
Assay [1] deals with T1, RET wt (Homo sapiens, UniProt P07949).
T1 construct: purchased Carna 08-159
Kind of assay: In vitro kinase activity assay (mobility shift assay), RET wild type. The conditions noted are these: ATP 16 μM, reaction time 60 min. How it is done:
(§1) The IC50 (half inhibitory concentration) values of the compounds were used as an indicator to evaluate the inhibitory effect of the compound on RET wild-type, RET mutant, TRKa, SRC, BTK and/or mutated BTK kinase.
(§2) Using the method of Mobility shift assay, the compounds were tested for inhibitory activity against the following kinases: RET wild type, RET mutant, TRKa, SRC, BTK and/or mutated BTK. The initial concentration of the test compound was 1000 nM, 3-fold dilution, 10 concentrations, detected in a well for each concentration.
(§3) 20 mM hydroxyethylpiperazineethanesulfonic acid (Hepes) (pH 7.5) buffer, 10 mM MgCl2, 1 mM ethylene glycol bis(aminoethyl ether)tetraacetic acid (EGTA), 0.02% polyoxyethylene lauryl ether (Brij35), 0.02 mg/ml […] (BSA), 0.1 mM Na3VO4, 2 mM dithiothreitol (DTT), 1% DMSO.
(§4) The test compounds were dissolved in 100% dimethyl sulfoxide (DMSO) system, and prepared as 10 mM for use, and stored in a nitrogen cabinet away from light.
(§5) • (1) Preparing 1× kinase reaction buffer. • (2) Preparation of compound concentration gradient: the initial concentration of the compounds was 1000 nM, which was diluted as 100-fold final concentration of solution in 100% dimethyl sulfoxide (DMSO) in a 384-well plate. The compound was accurately 3-fold diluted with the kinase buffer solution, 10 concentrations in total, and the final concentration was 0.0508 nM. The 100-fold final concentration of solution in 100% dimethyl sulfoxide (DMSO) was obtained by dilution in 384 source plate. The liquid separator Echo 550 was used to transfer 250 nl of 100-fold final concentration of compound to the target 384 well plate. 250 nl of DMSO was added to the positive and negative control wells. • (3) 2.5-fold final concentration of kinase solution was prepared by the 1× kinase buffer. • (4) 10 4, of 2.5-fold final concentration of kinase solution was added to the compound well and the positive control well, respectively; 10 4, of 1× kinase buffer was added to the negative control well. • (5) After centrifuging at 1000 rpm for 30 second, the reaction plate was shaken and mixed, followed by incubation at room temperature for 10 min. • (6) a mixed solution of 25/15-fold final concentration of adenosine triphosphate (ATP) and kinase substrate was prepared by 1× kinase buffer. • (7) The mixed solution (15 μL) of 25/15-fold final concentration of adenosine triphosphate (ATP) and substrate was added to initiate the reaction. • (8) 384-well plate was centrifuged at 1000 rpm for 30 second, shaken and mixed well, and then incubated at room temperature for 30-240 min. • (9) After stopping the kinase reaction, the plate was centrifugated at 1000 rpm for 30 second, shaken and mixed well. • (10)The conversion rate was read with Caliper EZ Reader.
(§6) wherein Conversion%_sample is the conversion rate reading of the sample; Conversion%_min: the mean value of negative control wells, representing the conversion rate reading of wells without enzymes; Conversion%_max: the mean value of positive control wells, representing the conversion rate reading of wells without compound inhibition.
(§7) The log value of concentration was taken as the X axis, and the percentage inhibition rate was taken as the Y axis. Graphpad 6.0 analysis software was used to fit the dose-response curve, so as to obtain the IC50 value of each compound on the enzyme activity

Assay [2] deals with T2, RET G810R (Homo sapiens, UniProt P07949, G810R).
T2 construct: purchased Proqinase 1724-0000-1
T2 sequence (P07949 29-1114 G810R): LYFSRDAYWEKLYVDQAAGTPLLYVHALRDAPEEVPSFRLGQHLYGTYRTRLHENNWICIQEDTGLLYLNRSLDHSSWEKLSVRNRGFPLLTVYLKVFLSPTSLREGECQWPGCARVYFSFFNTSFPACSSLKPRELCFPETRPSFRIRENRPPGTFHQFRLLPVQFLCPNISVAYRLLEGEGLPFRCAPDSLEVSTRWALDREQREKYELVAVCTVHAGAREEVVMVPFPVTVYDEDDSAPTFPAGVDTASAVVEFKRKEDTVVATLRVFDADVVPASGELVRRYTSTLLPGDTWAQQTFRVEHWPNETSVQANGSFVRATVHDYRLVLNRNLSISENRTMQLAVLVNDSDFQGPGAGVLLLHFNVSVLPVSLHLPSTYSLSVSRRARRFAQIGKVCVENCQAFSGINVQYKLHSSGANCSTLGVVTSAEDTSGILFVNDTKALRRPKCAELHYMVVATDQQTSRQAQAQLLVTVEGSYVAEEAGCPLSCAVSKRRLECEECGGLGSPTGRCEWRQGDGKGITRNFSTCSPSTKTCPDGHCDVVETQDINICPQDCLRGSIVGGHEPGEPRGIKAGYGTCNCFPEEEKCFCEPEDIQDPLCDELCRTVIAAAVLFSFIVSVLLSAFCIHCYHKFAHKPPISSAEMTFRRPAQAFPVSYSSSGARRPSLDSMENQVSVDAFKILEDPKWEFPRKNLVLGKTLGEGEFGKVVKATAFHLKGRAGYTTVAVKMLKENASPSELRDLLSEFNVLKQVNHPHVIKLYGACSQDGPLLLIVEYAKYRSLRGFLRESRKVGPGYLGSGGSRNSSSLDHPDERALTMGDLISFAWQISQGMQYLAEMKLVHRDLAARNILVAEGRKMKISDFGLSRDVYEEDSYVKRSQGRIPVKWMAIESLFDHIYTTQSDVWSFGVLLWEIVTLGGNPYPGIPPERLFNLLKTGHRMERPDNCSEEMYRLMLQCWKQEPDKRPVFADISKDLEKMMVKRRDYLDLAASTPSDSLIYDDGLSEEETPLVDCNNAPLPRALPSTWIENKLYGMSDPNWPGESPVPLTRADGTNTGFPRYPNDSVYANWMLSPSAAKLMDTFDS
As to the kind of experiment: In vitro kinase activity assay (mobility shift assay), RET G810R. The conditions noted are these: ATP 201 μM, reaction time 4 h. The procedure:
as §1, §2, §3, §4, §5, §6, §7

The target in assay [3] is T3, BTK (Homo sapiens, UniProt Q06187).
T3 construct: purchased Carna 08-180
T3 sequence (Q06187 whole entry): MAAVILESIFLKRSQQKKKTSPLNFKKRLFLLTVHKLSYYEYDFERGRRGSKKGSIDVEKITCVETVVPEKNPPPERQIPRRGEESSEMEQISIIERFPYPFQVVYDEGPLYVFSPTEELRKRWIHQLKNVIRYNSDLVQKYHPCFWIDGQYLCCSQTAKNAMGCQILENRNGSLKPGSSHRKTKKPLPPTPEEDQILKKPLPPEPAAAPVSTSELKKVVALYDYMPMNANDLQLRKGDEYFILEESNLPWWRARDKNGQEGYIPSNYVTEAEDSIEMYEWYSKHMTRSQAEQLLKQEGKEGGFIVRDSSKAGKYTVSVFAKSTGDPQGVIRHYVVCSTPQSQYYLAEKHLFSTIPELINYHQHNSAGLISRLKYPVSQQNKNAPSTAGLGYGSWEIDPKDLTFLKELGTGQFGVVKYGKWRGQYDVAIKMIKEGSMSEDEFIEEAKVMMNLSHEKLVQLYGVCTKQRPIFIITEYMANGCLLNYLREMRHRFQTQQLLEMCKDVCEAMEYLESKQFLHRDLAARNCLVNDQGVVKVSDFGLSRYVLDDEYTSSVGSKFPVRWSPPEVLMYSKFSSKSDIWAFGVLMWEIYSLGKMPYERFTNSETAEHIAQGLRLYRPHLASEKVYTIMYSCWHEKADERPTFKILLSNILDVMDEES
Kind of assay: In vitro kinase activity assay (mobility shift assay), BTK. The following applies: ATP 71 μM, reaction time 30 min. The procedure: as §1, §2, §3, §4, §5, §6, §7

Assay [4] concerns the target T4, RET V804M (Homo sapiens, UniProt P07949, V804M).
T4 construct: purchased signalchem R02-12GG
As to the kind of experiment: In vitro kinase activity assay (mobility shift assay), RET V804M. The following applies: ATP 5.4 μM, reaction time 60 min. How it is done:
as §1, §2, §3, §4, §5, §6, §7

T1 sequence (P07949 29-1114): as the sequence (P07949 29-1114 G810R) above, with R782G counted along it
T4 sequence (P07949 29-1114 V804M): as the sequence (P07949 29-1114 G810R) above, with V776M, R782G counted along it

Turning to `C[C@H]1CNC(=O)c2cnn3cc(-c4ccc5[nH]c(=O)[nH]c5c4)c(nc23)NCc2cc(F)cnc2O1` [Compound 38, (S, 1^3E, 1^4E)-4^5-fluoro-6-methyl-1^6-(2-oxo-2,3-dihydro-1H-benzo[d]imidazol-5-yl)-5-oxo-2,8-diaza-1(5,3)-pyrazolo[1,5-a]pyrimidin-4(3,2)-pyridinacyclononaphan-9-one], the IC50 in assay [1], in assay [2] and in assay [3] was greater than 1000 nM each time.
In the case of `C[C@H]1CNC(=O)c2cnn3cc(C4=CCCC4)c(nc23)NCc2cc(F)cnc2O1` [Compound 41, (S, 1^3E, 1^4E)-1^6-(cyclopent-1-en-1-yl)-4^5-fluoro-6-methyl-5-oxa-2,8-diaza-1(5,3)-pyrazolo[1,5-a]pyrimidin-4(3,2)-pyridinacyclononaphan-9-one], the IC50 was 13 nM in assay [1], greater than 10000 nM in assay [2], greater than 10000 nM in assay [4] and 2070 nM in assay [3].
Take `CCNC(=O)Cc1ccc(-c2c3nc4c(cnn4c2N)C(=O)NC[C@H](C)Oc2ncc(F)cc2CN3)cc1` [Example 83, 2-(4-((S, 1^3E, 1^4E)-1^7-4^5-fluoro-6-methyl-9-oxo-5-oxa-2,8-diaza-1(5,3)-pyrazolo[1,5-a]pyrimidin-4(3,2)-pyridinacyclononaphan-1^6-yl)phenyl)-N-ethylacetamide]: the IC50 in assay [1] was 49 nM; in assay [2] it was greater than 1000 nM; in assay [4] it was 281 nM.
For the compound `C[C@H]1CNC(=O)c2cnn3c(N)c(-c4ccc(N)cc4)c(nc23)NCc2cc(F)cnc2O1` [Example 60, (S, 1^3E, 1^4E)-1^7-amino-1^6-(4-aminophenyl)-4^5-fluoro-6-methyl-5-oxa-2,8-diaza-1(5,3)-pyrazolino[1,5-a] pyrimidin-4(3,2)-pyridinacyclononaphan-9-one], the IC50 in assay [1] amounted to 3.5 nM; in assay [2] it was 361 nM; in assay [3], 3.6 nM.
With `CCNC(=O)Nc1ccc(-c2c3nc4c(cnn4c2N)C(=O)NC[C@H](C)Oc2ncc(F)cc2CN3)cc1` [Example 80, 1-(4-((S, 1^3E, 1^4E)-1^7-amino-4^5-fluoro-6-methyl-9-oxo-5-oxa-2,8-diaza-1(5,3)-pyrazolo[1,5-a]pyrimidin-4(3,2)-pyridinacyclononaphan-1^6-yl)-phenyl)-3-ethylurea], the half-maximal inhibitory concentration (IC50) in assay [1] turned out to be 0.6 nM; in assay [2], 15 nM; in assay [4], 0.99 nM.
For the compound `CCOC(=O)Nc1c(F)cc(-c2c3nc4c(cnn4c2N)C(=O)NC[C@H](C)Oc2ncc(F)cc2CN3)cc1F` [Example 70, (S, 1^3E, 1^4E)-1^7-amino-4^5-fluoro-6-methyl-1^6-(6^2′^6-difluoro-6^1-(ethoxycarbonyl)amino-4-yl)phenyl-5-oxa-2,8-diaza-1(5,3)-pyrazolo[1,5-a]pyrimidinyl-4(3,2)-pyridinacyclononaphan-9-one], the 50% inhibitory concentration (IC50) in assay [1] was 15 nM; in assay [2] it was greater than 1000 nM; in assay [4], 551 nM.
Take `C[C@H]1CNC(=O)c2cnn3cc(-c4ccccc4)c(nc23)NCc2cc(Nc3ccccn3)cnc2O1` [Compound 48, (S, 1^3E, 1^4E)-6-methyl-1^6-phenyl-4^5-(pyridin-2-ylamino)-5-oxa-2,8-diaza-1(5,3)-pyrazolo[1,5-a]pyrimidina-4(3,2)-pyridinacyclononaphan-9-one]: the IC50 in assay [1], in assay [2] and in assay [4] was greater than 1000 nM throughout.
Regarding `C[C@H]1CNC(=O)c2cnn3cc(-c4ccccc4)c(nc23)NCc2cc(Cl)cnc2O1` [Compound 47, (S, 1^3E, 1^4E)-4^5-chloro-6-methyl-1^6-phenyl-5-oxa-2,8-diaza-1(5,3)-pyrazolo[1,5-a]pyrimidina-4(3,2)-pyridinacyclononaphan-9-one], the IC50 in assay [1] is 26 nM; in assay [2], greater than 1000 nM; in assay [4], greater than 1000 nM.
In the case of `CCCOC(=O)Nc1ccc(-c2c3nc4c(cnn4c2N)C(=O)NC[C@H](C)Oc2ncc(F)cc2CN3)cc1` [Example 67, propyl (4-((S, 1^3E, 1^4E)-1^7-amino-4^5-fluoro-6-methyl-9-oxo-5-oxa-2,8-diaza-1(5,3)-pyrazolino [1,5-a]pyrimidin-4(3,2)-pyridinacyclononaphan-1^6-yl)-phenyl)carbamate], the values for the IC50 in assay [1], in assay [2] and in assay [4] were 1.19 nM, 35.7 nM and 3.58 nM, respectively.
On the same counts, the results for `CCOC(=O)Nc1ccc(-c2c3nc4c(cnn4c2N)C(=O)NC[C@H](C)Oc2ncc(F)cc2CN3)cc1F` [Example 69, ethyl (4-((S, 1^3E, 1^4E)-1^7-amino-4^5-fluoro-6-methyl-9-oxo-5-oxa-2,8-diaza-1(5,3)-pyrazolo[1,5-a]pyrimidin-4(3,2)-pyridinacyclononaphan-1^6-yl)-2-fluorophenyl)carbamate] are 0.87 nM, 16 nM and 2.8 nM.
For `CCOC(=O)Nc1ccc(-c2c3nc4c(cnn4c2N)C(=O)NC[C@H](C)Oc2ncc(F)cc2CN3)c(F)c1` [Example 71, ethyl (4-((S, 1^3E, 1^4E)-1^7-amino-4^5-fluoro-6-methyl-9-oxo-5-oxo-2,8-diaza-1(5,3)-pyrazolo[1,5-a]pyrimidin-4(3,2)-pyridinacyclononaphan-1^6-yl)-3-fluorophenyl)carbamate], the IC50 in assay [1] was 1.2 nM; in assay [2], 23 nM; in assay [4], 1.6 nM.
On the same counts, the results for `C[C@H]1CNC(=O)c2cnn3cc(-c4ccc(Nc5ncco5)cc4)c(nc23)NCc2cc(F)cnc2O1` [Compound 42, (S, 1^3E, 1^4E)-4^5-fluoro-6-methyl-1^6-(4-(oxazol-2-amino)phenyl)-5-oxa-2,8-diaza-1(5,3)-pyrazolo[1,5-a] pyrimidin-4(3,2)-pyridinacyclononaphan-9-one] are greater than 1000 nM, greater than 1000 nM and greater than 1000 nM.
On the same counts, the results for `CCN(C)C(=O)Nc1ccc(-c2c3nc4c(cnn4c2N)C(=O)NC[C@H](C)Oc2ncc(F)cc2CN3)cc1` [Example 81, 3-(4-((S, 1^3E,VE)-1^7-amino-4^5-fluoro-6-methyl-9-oxo-5-oxa-2,8-diaza-1(5,3)-pyrazolo[1,5-a]pyrimidin-4(3,2)-pyridinacyclononaphan-1^6-yl)-phenyl)-1-ethyl-1-methylure a] are 89 nM, greater than 1000 nM and 384 nM.
As for `CNC(=O)Nc1ccc(-c2cn3ncc4c3nc2NCc2cc(F)cnc2O[C@@H](C)CNC4=O)cc1` [Compound 32, 1-(4-((S, 1^3E, 1^4E)-4^5-fluoro-6-methyl-9-oxo-5-oxa-2,8-diaza-1(5,3)-pyrazolo[1,5-a]pyrimidin-4(3,2)-pyridinacyclononaphan-1^6-yl)phenyl)-3-methylurea], the IC50 in assay [1] stood at 14.2 nM; in assay [2], 98.2 nM; in assay [4] it was 59 nM.
Turning to `COC(=O)NC1CC=C(c2cn3ncc4c3nc2NCc2cc(F)cnc2O[C@@H](C)CNC4=O)CC1` (stereo partly drawn) [Compound 43, methyl (4((S, 1^3E, 1^4E)-4^5-fluoro-6-methyl-9-oxo-5-oxa-2,8-diaza-1(5,3)-pyrazolo[1,5-a]pyrimidin-4(3,2)-pyridinacyclononaphan-1^6-yl)cyclohex-3-en-1-yl)carbamate], the 50% inhibitory concentration (IC50) in assay [1] was 68 nM; in assay [2] it was greater than 10000 nM; in assay [4], greater than 10000 nM; in assay [3], greater than 10000 nM.
